The source of these data is article PMC10287695, “Non-covalent inhibitors of thioredoxin glutathione reductase with schistosomicidal activity in vivo” (Nature Communications, 2023).

For one data set, the system named is Vero cells. Put plainly: Cytotoxicity in mammalian cells (Cell Titer Glo). It counts as cell-based. Here is the method: Following overnight incubation, formulated DMSO-compound stock solutions were diluted with DMEM at <1% DMSO final concentrations. […] Vero cells treated similarly with different concentrations of PZQ, MZM and AF (Cayman Chemicals) were used as positive controls.
A general note: Cellular ATP, detected with luciferase, serves as a proxy for viable cell number.

The next data set deals with T1, Human TrxR1 (Homo sapiens, UniProt Q16881).
T1 construct: made in house
T1 sequence (Q16881 1-499 isoform Q16881-5): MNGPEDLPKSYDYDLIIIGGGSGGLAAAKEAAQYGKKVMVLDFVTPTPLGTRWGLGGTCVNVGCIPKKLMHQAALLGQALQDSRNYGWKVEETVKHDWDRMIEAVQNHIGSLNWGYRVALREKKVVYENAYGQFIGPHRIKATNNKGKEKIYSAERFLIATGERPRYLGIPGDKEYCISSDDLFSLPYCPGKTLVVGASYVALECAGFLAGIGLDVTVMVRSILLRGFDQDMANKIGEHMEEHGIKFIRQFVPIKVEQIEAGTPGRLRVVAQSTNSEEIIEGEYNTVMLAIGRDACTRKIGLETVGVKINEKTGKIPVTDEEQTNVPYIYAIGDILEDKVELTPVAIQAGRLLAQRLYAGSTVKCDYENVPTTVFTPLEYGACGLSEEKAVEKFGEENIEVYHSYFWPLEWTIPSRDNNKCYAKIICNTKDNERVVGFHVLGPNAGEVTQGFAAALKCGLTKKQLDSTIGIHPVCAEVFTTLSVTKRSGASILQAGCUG
Put plainly: Human TrxR1 enzyme inhibition (DTNB reduction). It counts as biochemical. The following applies: for IC50: 15 min preincubation (enzyme + 100 µM NADPH + compound), read-out: Human TrxR1 IC50; for inhibition at 15 µM: compound 15 µM; for inhibition at 30 µM: compound 30 µM.

For data set [1], the system named is S. mansoni newly transformed schistosomula (NTS). Put plainly: Schistosomicidal activity ex vivo, NTS (Cell Titer Glo). The conditions noted are these: for LD50 ex vivo S. mansoni NTS: 24 h exposure, Cell TiterGlo. It counts as cell-based. In outline:
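Viability, expressed relative to DMSO-treated worms, was measured as ATP content (Cell Titer Glo) after 24 or 72 h of compound exposure in triplicate. Mechanically transformed S. mansoni NTS were cultured at 240 per well in M199 with glucose and 5% FBS at 37 °C; DMSO <1%, AF 5 µM as positive control.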

The next data set relates to S. mansoni adult worms. Description: Schistosomicidal activity ex vivo, adult worms (Cell Titer Glo), alone or with channel blockers. Type of data set: cell-based. The conditions noted are these: for LD50 ex vivo S. mansoni adult: 24 h exposure. The method, then: Three-week old, female Swiss-Webster mice obtained from the Charles River were housed in the Comparative Research Center of Rush University Medical Center. Mice were infected by percutaneous tail exposure to about 200 S. mansoni or 50 S. japonicum cercaria for adult worms and about 1000 cercaria for juvenile S. mansoni worms through natural transdermal penetration of the cercariae for 1 h[81].
DMSO formulated compounds were diluted with phenol red free M199 medium or RPMI medium for NTS or juvenile and adult worms, respectively, at <1% DMSO final concentrations. NTS, juvenile and adult worms from overnight cultures were tested against compounds in triplicate. Controls were treated with DMSO alone or 5 µM AF as a positive control in appropriate medium. […] Schistosome viabilities in the presence of the compounds were assessed using this formula: % Viability = Averages of Test / Averages of DMSO Control x 100.

[2] abbreviates: hsTrxR, 15 minutes pre-incubation.
[3] abbreviates: hsTrxR, 15 minutes pre-incubation, compound 66.7 µM, read-out: % inhibition.

Each structure is given as a SMILES string. “And” between values parts separate entries of the source, which are not always exact repeats. Identical values can stand only once. Like-named read-outs stand apart in the source and are kept apart here. Marks after values point to notes of the source that are not given here. Some results are limits rather than exact numbers.

The IC50 is the concentration that inhibits the measured activity by half. As usually defined, the inhibition is the percentage by which the read-out fell short of the control. For orientation: viability means a read-out of living cells in per cent, often relative to untreated cells. As to `Cc1oc(C2CCCCC2)nc1C(=O)N[C@@H]1C[C@@H]2C[C@H]([C@H]1C)C2(C)C` [Compound 7], in the data set with Vero cells (African green monkey, 24 h), the “LD50 ex vivo VERO” value is listed as >50^a µM. Moreover, the IC50 at Human TrxR1 amounted to 22.3 ± 2.03 µM. Also, at 15 µM the inhibition at Human TrxR1 (setting [2]) was 38.1%. Moreover, on Human TrxR1 (setting [2]), the inhibition at 30 µM worked out at 63.3%. Moreover, the inhibition at 66.7 µM at Human TrxR1 (setting [3]) is 92.7%. In addition, the “LD50 ex vivo S. mansoni NTS” value in data set [1] is given as 4.7 ± 0.31 µM. Besides, in data set [1] (Schistosoma mansoni), the viability at 1 µM is 85.7%. The same compound had a viability at 1.5 µM in data set [1] (Schistosoma mansoni) of 72.1%. The compound also showed a viability at 2.5 µM in data set [1] (Schistosoma mansoni) of 47.6%. Moreover, the viability at 5 µM in data set [1] (Schistosoma mansoni) stood at 40.2%; with S. mansoni adult worms (Schistosoma mansoni, 5 µM, compound alone, read-out: % viability, adult worms) it was 99.8%; with S. mansoni adult worms (Schistosoma mansoni, S. mansoni adult worms, Conc. 5 µM, read-out: % viability), 99.8%. In addition, the “LD50 ex vivo S. mansoni adult” value in the data set with S. mansoni adult worms (compound alone) was determined as 32.6 ± 0.26 µM. The viability at 10 µM is 72.9% in the data set on S. mansoni adult worms (Schistosoma mansoni, 10 µM, compound alone, read-out: % viability, adult worms) and 72.9% in the data set with S. mansoni adult worms (Schistosoma mansoni, S. mansoni adult worms, Conc. 10 µM, read-out: % viability). Further, the viability at 25 µM amounted to 63% with S. mansoni adult worms (Schistosoma mansoni, 25 µM, compound alone, read-out: % viability, adult worms) and 63% in the data set on S. mansoni adult worms (Schistosoma mansoni, S. mansoni adult worms, Conc. 25 µM, read-out: % viability). The viability at 30 µM was determined as 59% with S. mansoni adult worms (Schistosoma mansoni, 30 µM, compound alone, read-out: % viability, adult worms) and 59% in the data set on S. mansoni adult worms (Schistosoma mansoni, S. mansoni adult worms, Conc. 30 µM, read-out: % viability).
Consider `Cc1oc(-c2ccc3ccccc3c2)nc1CNC1CCCCCC1` [Compound 5], for which, in the data set with Vero cells (African green monkey, 24 h), the “LD50 ex vivo VERO” value was >50^a µM. For the same compound, on Human TrxR1 (66.7 µM, 6 h preincubation, read-out: Human TrxR1 IC50 (µM) or inhibition (%) at 66.7 µM: inhibition), the inhibition at 66.7 µM amounted to 28.5%. The IC50 at Human TrxR1 is more than 66.7 µM. Further, the “LD50 ex vivo S. mansoni NTS” value in data set [1] is 5.8 ± 0.15 µM. Also, in the data set with S. mansoni adult worms (compound alone), the “LD50 ex vivo S. mansoni adult” value worked out at 9.36 ± 0.47 µM.
The term EC50 denotes the concentration needed to bring the measured effect to its halfway point. With `CC1C(NCc2cn(C3OCC(O)C(O)C3O)c3ccccc23)CC2CC1C2(C)C` (stereo not drawn) [Compound 9], the “LD50 ex vivo VERO” value with Vero cells (African green monkey, 24 h) is listed as >50^a µM. Also, the EC50 in the data set with Vero cells (Chlorocebus sabaeus, Vero, estimate from raw data, read-out: EC50 viability of Vero cells) is more than 200 µM. In addition, the 50% inhibitory concentration (IC50) at Human TrxR1 is 70.5 ± 11.4 µM. On Human TrxR1 (setting [2]), this compound returned an inhibition at 15 µM of 5.09% and an inhibition at 30 µM of 8.68%. Also, the inhibition at 66.7 µM on Human TrxR1 (setting [3]) turned out to be 14.5%. For the same compound, the “LD50 ex vivo S. mansoni NTS” value in data set [1] stood at 11.14 ± 1.04 µM. Also, in the data set on S. mansoni adult worms (compound alone), the “LD50 ex vivo S. mansoni adult” value was >100^a µM and >100 µM. Further, in the data set with S. mansoni adult worms (Schistosoma mansoni, S. mansoni adult worms, 5 µM, relative to Worm + RPMI control, read-out: % viability), the viability at 5 µM amounted to 99.2%. Further, in the data set with S. mansoni adult worms (Schistosoma mansoni, S. mansoni adult worms, 15 µM, relative to Worm + RPMI control, read-out: % viability), the viability at 15 µM was determined as 91.1%. In addition, the viability at 30 µM in the data set with S. mansoni adult worms (Schistosoma mansoni, S. mansoni adult worms, 30 µM, relative to Worm + RPMI control, read-out: % viability) was found to be 88.8%. Besides, in the data set on S. mansoni adult worms (Schistosoma mansoni, S. mansoni adult worms, 50 µM, relative to Worm + RPMI control, read-out: % viability), the viability at 50 µM was found to be 83.3%. In addition, in the data set with S. mansoni adult worms (Schistosoma mansoni, S. mansoni adult worms, 100 µM, relative to Worm + RPMI control, read-out: % viability), the viability at 100 µM is 78.4%.
On to `O=C(C1CCCCC1)N1CC(=O)N2CCc3ccccc3C2C1` (stereo not drawn) [PZQ, praziquantel], for which the “LD50 ex vivo VERO” value in the data set on Vero cells (24-hour exposure) was >50^a µM. Besides, the “Human TrxR1 IC50 (µM) or inhibition (%) at 66.7 µM: inhibition” value at Human TrxR1 (66.7 µM, 6 h preincubation) is “n.i.^e”. In addition, the “LD50 ex vivo S. mansoni NTS” value in data set [1] was 27.1 ± 2.27 µM. In addition, the viability at 20 µM in data set [1] (Schistosoma mansoni) stood at 58.2%. The viability at 0.5 µM in data set [1] (Schistosoma mansoni, S. mansoni NTS, Conc. 0.5 µM, read-out: % viability) turned out to be 94.3%. Besides, the viability at 1 µM in data set [1] (Schistosoma mansoni, S. mansoni NTS, Conc. 1 µM, read-out: % viability) worked out at 91.8%. Moreover, the viability at 5 µM in data set [1] (Schistosoma mansoni, S. mansoni NTS, Conc. 5 µM, read-out: % viability) is 85.6%. Besides, the viability at 10 µM in data set [1] (Schistosoma mansoni, S. mansoni NTS, Conc. 10 µM, read-out: % viability) was found to be 71.9%. In addition, the viability at 30 µM in data set [1] (Schistosoma mansoni, S. mansoni NTS, Conc. 30 µM, read-out: % viability) was 35.8%. Moreover, the “LD50 ex vivo S. mansoni adult” value with S. mansoni adult worms (compound alone) is 32.8 ± 4.07 µM. In the data set with S. mansoni adult worms (Schistosoma mansoni), this compound gave a viability at 5 µM of 95.6%, a viability at 15 µM of 75.1%, a viability at 30 µM of 54.8% and a viability at 50 µM of 35.2%.
